Measured values published in PMC10100877, “Identification of Small-Molecule Inhibitors of the Salmonella FraB Deglycase Using a Live-Cell Assay” (Microbiology Spectrum, 2023).
Where a name gives a salt, the structure may show the parent alone. Read-outs that look alike come from different tables or passages of the source.

Legend:
[1] = system: wild-type Salmonella (ASD200) live cells; test: Live-cell growth assay, concentration-response (IC50/IC90) of the top 8 purchased compounds; type: cell-based, Salmonella enterica serovar Typhimurium; conditions: for IC50: read-out: IC50 with live cells, value (95% CI), concentration that inhibits growth to 50%; for IC90: read-out: IC90 with live cells, value (95% CI), concentration that inhibits growth to 90%
recombinant FraB = recombinant FraB (Salmonella enterica subsp. enterica serovar Typhimurium, UniProt Q8ZLD0); type: biochemical; conditions: for IC50: read-out: IC50 with recombinant FraB (mean ± SE); for Ki: read-out: Ki′ with FraB (mean ± SD)
Chain of recombinant FraB (Q8ZLD0 1-325): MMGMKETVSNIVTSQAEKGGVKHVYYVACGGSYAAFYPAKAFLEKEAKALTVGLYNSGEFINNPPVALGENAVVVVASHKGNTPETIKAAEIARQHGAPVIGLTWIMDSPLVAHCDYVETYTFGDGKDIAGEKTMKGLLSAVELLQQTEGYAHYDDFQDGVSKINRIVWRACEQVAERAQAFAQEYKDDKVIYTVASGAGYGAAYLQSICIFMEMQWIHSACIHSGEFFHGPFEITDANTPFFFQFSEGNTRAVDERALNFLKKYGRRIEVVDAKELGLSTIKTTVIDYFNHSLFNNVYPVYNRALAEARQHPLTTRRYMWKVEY

[2] = system: fraB mutants of Salmonella; test: Growth inhibition (intoxication) of fraB mutants by F-Asn; type: cell-based; conditions: new gram-scale preparations of F-Asn
[3] = system: fraB mutants of Salmonella; parameters: method as in PMID 27258673; conditions: F-Asn made with the small-scale synthesis route; cited from earlier work
[4] = M9 minimal medium, 5 mM glucose, 1 mM F-Asn, 17-h time point, 95% CI in brackets

For C/C(=N\O)C(=O)c1ccc(Cl)cc1 [1789:D13], which IC50 [1, 4] is on record?
The IC50 was 183 µM.

And the IC90 [1, 4]?
The IC90 was 348 µM.

And the IC50 (recombinant FraB)?
Its IC50 is over 1000 µM.

With O=c1c(=NO)c(=O)c2ccccc12 [1669:M19, triketoindan-2-oxime] as the compound, how does the IC50 [1, 4] read?
The IC50 was 109 µM.

And the IC90 [1, 4]?
The IC90 was 297 µM.

And the “mode of inhibition of FraB” value (recombinant FraB)?
The value was 26 ± 4; uncompetitive.

What about the IC50 (recombinant FraB) of the same compound?
Its IC50 is 133 ± 0.8 µM.

And the Ki (recombinant FraB)?
The Ki was 26 ± 4 µM.

For CCOc1ccc(N2C(=O)NC(=O)/C(=C/c3cc(Cl)c(O)c(OC)c3)C2=O)cc1 [611:D03], which IC50 ([1]; 17 h) is on record?
The IC50 was 100 µM.

And the IC90 ([1]; 17 h)?
Its IC90 is 240 µM.

Which IC50 [2] does the source give for NC(=O)C[C@H](NCC(=O)[C@@H](O)[C@H](O)[C@H](O)CO)C(=O)O [F-Asn, fructose-asparagine] here?
Its IC50 is about 30 µM.

And the IC50 [3]?
Its IC50 is about 20 µM.

With Nc1cc(C(=O)O)ccc1Nc1ccccc1 [1609:K19, 3-amino-4-(phenylamino)benzoic acid] as the compound, how does the IC50 [1, 4] read?
The IC50 was 155 µM.

And the IC90 [1, 4]?
Its IC90 is 411 µM.

And the “mode of inhibition of FraB” value (recombinant FraB)?
The value was 116 ± 27; uncompetitive.

And the IC50 (recombinant FraB)?
The IC50 was 114 ± 3.8 µM.

And the Ki (recombinant FraB)?
The Ki was 116 ± 27 µM.

With COc1ccc2[nH]c(SC)nc2c1 [1582:D17] as the compound, how does the IC50 [1, 4] read?
The IC50 was 143 µM.

And the IC90 [1, 4]?
The IC90 was 318 µM.

What about the IC50 (recombinant FraB) of the same compound?
Its IC50 is over 1000 µM.

Which IC50 [1, 4] does the source give for c1ccc([B-]2(c3ccccc3)[NH2+]CCO2)cc1 [3403:P13, 2,2-diphenyl-1,3,2-oxaazaborolidine internal salt] here?
The IC50 was 89 µM.

And the IC90 [1, 4]?
The IC90 was 184 µM.

What about the “mode of inhibition of FraB” value (recombinant FraB) of the same compound?
The value was 27 ± 6 uncompetitive.

What about the IC50 (recombinant FraB) of the same compound?
The IC50 was 35 ± 0.9 µM.

What about the Ki (recombinant FraB) of the same compound?
The Ki was 27 ± 6 µM.

What does the source list for O=C(O)/C=C/Sc1ccccc1 [1737:K20]?
IC50 [1, 4]: 121 µM; IC90 [1, 4]: 503 µM; IC50 (recombinant FraB): > 1000 µM
